Experimental data from BindingDB's records for doi:10.1021/bi401354d (Pfizer, 2013).
pKi: −log10 of the molar value.

molecular target: T1, Myeloperoxidase (Homo sapiens, UniProt P05164); experiment: MPO Activity Assay; settings: pH 7.4
T1 sequence (P05164 whole entry): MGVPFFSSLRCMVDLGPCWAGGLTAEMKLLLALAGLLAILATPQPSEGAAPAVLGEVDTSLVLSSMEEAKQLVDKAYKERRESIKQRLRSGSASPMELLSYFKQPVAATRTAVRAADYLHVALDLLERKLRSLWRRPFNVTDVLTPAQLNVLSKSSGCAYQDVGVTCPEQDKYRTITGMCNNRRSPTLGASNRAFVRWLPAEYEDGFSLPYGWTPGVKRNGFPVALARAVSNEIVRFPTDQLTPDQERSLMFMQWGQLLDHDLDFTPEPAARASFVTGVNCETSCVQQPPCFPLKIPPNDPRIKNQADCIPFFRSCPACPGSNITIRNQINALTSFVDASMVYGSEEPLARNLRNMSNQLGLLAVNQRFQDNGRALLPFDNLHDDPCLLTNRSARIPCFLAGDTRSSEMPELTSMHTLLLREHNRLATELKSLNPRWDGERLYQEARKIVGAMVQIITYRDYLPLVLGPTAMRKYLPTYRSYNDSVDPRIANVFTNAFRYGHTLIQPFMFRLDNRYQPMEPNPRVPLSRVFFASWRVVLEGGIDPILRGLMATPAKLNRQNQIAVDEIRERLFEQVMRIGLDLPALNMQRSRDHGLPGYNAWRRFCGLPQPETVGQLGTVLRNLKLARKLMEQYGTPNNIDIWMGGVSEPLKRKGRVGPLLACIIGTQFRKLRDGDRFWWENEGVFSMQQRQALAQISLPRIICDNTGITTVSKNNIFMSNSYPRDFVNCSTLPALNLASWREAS
Experimental: Assay mixtures (100 µL) contained 50 mM NaPi (pH 7.4), 150 mM NaCl, 1 mM DTPA, 2% DMSO, the indicated concentrations of H2O2, and Amplex Red. The reactions were initiated by the addition of 100 pM MPO. The fluorescent changes were measured at 530 (excitation) and 580 nm (emission).

Row | pKi | Compound
1 | 6.26 | CCO[C@H](C)Cn1c(=S)[nH]c(=O)c2[nH]cnc21 [3‐[(2R)‐2‐ethoxypropyl]‐2‐sulfanylidene‐1,9‐ dihydropurin‐6‐one (C)]
2 | 6.38 | CCOC(C)Cn1c(=S)[nH]c(=O)c2[nH]cnc21 (stereo not drawn) [3‐(2‐ethoxypropyl)‐2‐sulfanylidene‐1,9‐ dihydropurin‐6‐one (A)]
3 | 6.37 | CCO[C@@H](C)Cn1c(=S)[nH]c(=O)c2[nH]cnc21 [3‐[(2S)‐2‐ethoxypropyl]‐2‐sulfanylidene‐1,9‐ dihydropurin‐6‐one (D)]
